Literature values, collected in patent publication US20070148689A1, “Compositions and methods for the prevention, treatment and detection of tuberculosis and other diseases” (priority 2000, published 2007).

Assays:
CODH = CODH (Neomoorella thermoacetica, UniProt P27988)
[1] = chelator by intraperitoneal injection shortly after oral or intraperitoneal administration of nickel
[2] = 10% DTPA in an oil-in-water emulsion
CO(L)-deficient CODH = CO(L)-deficient CODH (Rhodospirillum rubrum, UniProt P31896)
CO(L)-deficient CODH, sequence (P31896 whole entry): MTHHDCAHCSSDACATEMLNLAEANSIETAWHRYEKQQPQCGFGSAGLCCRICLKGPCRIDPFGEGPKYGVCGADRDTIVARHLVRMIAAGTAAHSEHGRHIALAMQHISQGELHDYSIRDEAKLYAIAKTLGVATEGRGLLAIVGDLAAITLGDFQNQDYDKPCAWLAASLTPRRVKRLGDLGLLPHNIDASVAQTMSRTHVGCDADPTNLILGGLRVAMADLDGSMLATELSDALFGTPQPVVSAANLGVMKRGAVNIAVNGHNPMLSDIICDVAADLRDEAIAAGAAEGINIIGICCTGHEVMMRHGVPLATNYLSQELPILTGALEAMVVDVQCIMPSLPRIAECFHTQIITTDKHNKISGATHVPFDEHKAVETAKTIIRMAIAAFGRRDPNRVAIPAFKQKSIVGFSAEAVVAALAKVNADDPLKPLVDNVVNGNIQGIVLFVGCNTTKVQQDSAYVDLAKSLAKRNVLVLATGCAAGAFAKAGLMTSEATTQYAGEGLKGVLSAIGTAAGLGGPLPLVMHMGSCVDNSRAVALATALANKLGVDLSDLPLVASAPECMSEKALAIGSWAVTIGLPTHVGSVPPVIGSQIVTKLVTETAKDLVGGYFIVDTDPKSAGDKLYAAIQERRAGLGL

CODH, sequence (P27989 whole entry): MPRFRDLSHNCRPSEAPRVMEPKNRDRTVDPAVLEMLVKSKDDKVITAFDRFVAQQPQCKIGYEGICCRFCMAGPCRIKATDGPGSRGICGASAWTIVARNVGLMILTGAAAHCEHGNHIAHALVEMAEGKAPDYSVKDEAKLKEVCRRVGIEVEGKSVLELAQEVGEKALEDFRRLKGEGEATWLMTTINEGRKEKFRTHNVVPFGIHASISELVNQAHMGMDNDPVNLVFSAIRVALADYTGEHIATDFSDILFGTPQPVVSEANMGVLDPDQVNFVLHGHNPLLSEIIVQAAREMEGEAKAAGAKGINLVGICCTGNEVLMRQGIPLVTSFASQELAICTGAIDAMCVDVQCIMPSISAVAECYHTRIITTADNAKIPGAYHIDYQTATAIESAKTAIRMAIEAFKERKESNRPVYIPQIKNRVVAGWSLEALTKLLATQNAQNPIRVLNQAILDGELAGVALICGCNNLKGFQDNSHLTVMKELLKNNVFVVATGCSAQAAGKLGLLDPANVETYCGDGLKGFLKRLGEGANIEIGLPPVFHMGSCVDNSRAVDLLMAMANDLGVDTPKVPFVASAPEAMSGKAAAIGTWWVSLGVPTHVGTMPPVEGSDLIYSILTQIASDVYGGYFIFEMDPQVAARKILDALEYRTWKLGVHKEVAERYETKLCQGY
CODH, sequence (P27988 whole entry): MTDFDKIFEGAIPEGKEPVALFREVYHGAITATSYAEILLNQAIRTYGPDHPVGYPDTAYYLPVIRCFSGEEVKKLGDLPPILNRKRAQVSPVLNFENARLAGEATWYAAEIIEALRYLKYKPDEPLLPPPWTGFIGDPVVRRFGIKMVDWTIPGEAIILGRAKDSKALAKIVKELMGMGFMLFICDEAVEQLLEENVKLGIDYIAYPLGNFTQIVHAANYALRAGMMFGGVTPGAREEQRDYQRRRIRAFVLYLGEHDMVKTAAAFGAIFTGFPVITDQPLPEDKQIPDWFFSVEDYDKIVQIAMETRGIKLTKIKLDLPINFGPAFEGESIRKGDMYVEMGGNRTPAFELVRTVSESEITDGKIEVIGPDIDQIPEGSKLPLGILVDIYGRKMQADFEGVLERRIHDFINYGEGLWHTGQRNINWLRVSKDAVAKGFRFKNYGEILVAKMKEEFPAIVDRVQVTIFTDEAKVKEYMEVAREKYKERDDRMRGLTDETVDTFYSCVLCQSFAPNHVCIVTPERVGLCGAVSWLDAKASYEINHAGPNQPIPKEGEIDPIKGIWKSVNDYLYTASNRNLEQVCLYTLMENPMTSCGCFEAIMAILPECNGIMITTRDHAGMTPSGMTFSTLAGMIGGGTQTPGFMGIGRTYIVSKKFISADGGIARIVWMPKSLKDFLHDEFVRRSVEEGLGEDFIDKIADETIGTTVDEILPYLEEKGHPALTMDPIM

Compound: c1cnc2c(c1)ccc1cccnc12 [1,10phenanthroline]
- Removal of the Ni ion in the A-cluster of CODH (CODH): selectively removed
- Synthesis of acetyl-coenzyme A by CODH without this Ni (CODH; after Ni removal by the chelator): can't catalyze

Compound: CCN(CC)C(=S)[S-].[Na+] [DDC, Sodium diethyldithiocarbamate]
- Whole-body retention of nickel [1]: increased

Compound: O=C(O)[C@@H](S)[C@@H](S)C(=O)O [DMSA, Meso-2,3-dimercaptosuccinic acid]
- Water solubility: water-soluble
- Toxicity (orally-administered metal chelator): non-toxic

Compound: O=C(O)CN(CCN(CC(=O)O)CC(=O)O)CCN(CC(=O)O)CC(=O)O [DTPA, diethylenetriaminepentaacetic acid]
- Preventive effect in nickel-sensitized patients [2]: preventive effect

Compound: CCN(CC)C(=S)SSC(=S)N(CC)CC [TTD, Tetraethylthiuram disulphide]
- Whole-body retention of nickel [1]: increased

Compound: CC(=NO)C(C)=NO [dimethylglyoxime]
- Removal of Ni from CO(L)-deficient CODH by treatment (CO(L)-deficient CODH): can be removed
